From BindingDB's records for patent US20250368667 (Shanghai Qilu Pharmaceutical Research and Development Centre, 2025)

Biological target: T1, Ubiquitin carboxyl-terminal hydrolase 1 (Homo sapiens, UniProt O94782)
T1 sequence (O94782 whole entry): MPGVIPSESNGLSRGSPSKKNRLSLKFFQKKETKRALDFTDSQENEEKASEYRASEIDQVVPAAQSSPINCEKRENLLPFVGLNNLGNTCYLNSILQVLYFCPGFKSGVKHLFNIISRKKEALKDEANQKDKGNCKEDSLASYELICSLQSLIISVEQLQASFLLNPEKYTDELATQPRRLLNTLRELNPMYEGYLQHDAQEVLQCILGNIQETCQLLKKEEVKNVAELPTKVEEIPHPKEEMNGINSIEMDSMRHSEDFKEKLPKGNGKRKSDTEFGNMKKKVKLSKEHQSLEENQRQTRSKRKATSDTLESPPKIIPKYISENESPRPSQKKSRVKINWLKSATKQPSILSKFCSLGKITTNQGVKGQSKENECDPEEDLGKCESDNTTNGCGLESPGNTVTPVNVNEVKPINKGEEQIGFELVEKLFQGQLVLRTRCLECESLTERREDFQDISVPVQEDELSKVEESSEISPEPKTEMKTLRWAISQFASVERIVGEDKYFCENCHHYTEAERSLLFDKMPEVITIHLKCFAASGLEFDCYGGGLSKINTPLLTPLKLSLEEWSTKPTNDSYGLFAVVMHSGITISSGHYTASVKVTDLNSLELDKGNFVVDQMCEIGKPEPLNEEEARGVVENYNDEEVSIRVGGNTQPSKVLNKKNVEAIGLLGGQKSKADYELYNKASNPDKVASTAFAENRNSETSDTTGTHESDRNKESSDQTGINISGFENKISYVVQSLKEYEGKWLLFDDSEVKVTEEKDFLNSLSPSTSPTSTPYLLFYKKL
Test: Experimental Method of USP1 Enzyme Activity

IC50 | SMILES
12.3 nM | COc1cnn(C2CC2)c1-c1ncc2c3ccncc3n(Cc3ccc(-c4nc(C(F)(F)F)cn4C)cc3)c2n1 [US20250368667, Compound 103]
5.17 nM | COc1ncnc(C2CC2)c1-c1ncc2c3ccc(C(C)C)nc3n(Cc3ccc4c(c3)CCCn3cc(C(F)(F)F)nc3-4)c2n1 [US20250368667, Compound 105]
16.6 nM | COc1ncnc(C2CC2)c1-c1ncc2c3ccc(=O)[nH]c3n(Cc3ccc4c(c3)CCCn3cc(C(F)(F)F)nc3-4)c2n1 [US20250368667, Compound 159]
5.49 nM | [2H]C([2H])([2H])Oc1ncnc(C2CC2)c1-c1ncc2c3cn(C)nc3n(Cc3ccc(-c4nc(C(F)(F)F)cn4C(C)C)cc3)c2n1 [US20250368667, Compound 162]
